Assay results as given in PMC3399817 (PLoS ONE, 2012).

What was measured:
HCT-116 (K-RAS^G13D/+) = test: Cell viability (Syto60); assay type: cell-based
Experimental: (§1) All colon cancer cell lines were maintained in DMEM supplemented with penicillin (100 units/mL), streptomycin (100 μg/mL), and 10% fetal bovine serum (FBS). The rectal cancer cell line (Car1) was maintained in DMEM/F12 supplemented with penicillin (100 units/mL)/streptomycin (50 μg/mL), and 5% FBS. […] The target sequences for knockdowns can be found in Table S2. In drug treatment experiments, cells were plated for 24 hours prior to exposure to drug. AZ-628 was obtained from AstraZeneca. CI-1040 was obtained from Pfizer. R406 was synthesized in the Gray laboratory. BAY61-3606 and IKK VII were purchased from EMD Biosciences. BAY derivatives were synthesized for this study.
(§2) Cell cycle analysis was performed via FACS-based propidium iodide quantification, using standard methods. To measure cell viability, cells were grown in 96-well plates in the presence or absence of drug for 72 hours, fixed with 4% paraformaldehyde, and then stained with Syto60 (Invitrogen). Plates were imaged and quantified using the LiCor Odyssey system (LiCor).

[1] = tested on: colorectal cancer cells expressing mutant B-RAF (V600E) (HT-29, RKO); test: Cell viability (Syto60); assay type: cell-based; settings: HT-29 and RKO, 72 hours
Experimental: as §1, §2

[2] = target: T1, JAK1(JH2domain-pseudokinase) (Homo sapiens, UniProt P23458); test: KINOMEscan; assay type: binding; settings: 1 uM
T1 construct: JAK1(JH2domain-pseudokinase); purchased Ambit KINOMEscan (DiscoverX)
In short: (§3)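 Panel profiling at one dose (1 μM) identifies kinases prevented from binding substrate by the test molecule.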

WEE1 = target: T2, WEE1 (Homo sapiens, UniProt P30291); test: KINOMEscan; assay type: binding; settings: WEE1, 1 uM
T2 construct: purchased Ambit KINOMEscan (DiscoverX)
In short: as §3

JNK2 = target: T3, JNK2 (Homo sapiens, UniProt P45984); test: KINOMEscan; assay type: binding; settings: JNK2, 1 uM
T3 construct: purchased Ambit KINOMEscan (DiscoverX)
In short: as §3

BMX = target: T4, BMX (Homo sapiens, UniProt P51813); test: KINOMEscan; assay type: binding; settings: 1 uM
T4 construct: purchased Ambit KINOMEscan (DiscoverX)
In short: as §3

MEK1 = target: T5, MEK1 (Homo sapiens, UniProt Q02750); test: KINOMEscan; assay type: binding; settings: MEK1, 1 uM
T5 construct: purchased Ambit KINOMEscan (DiscoverX)
In short: as §3

BMPR1A = target: T6, BMPR1A (Homo sapiens, UniProt P36894); test: KINOMEscan; assay type: binding; settings: 1 uM
T6 construct: purchased Ambit KINOMEscan (DiscoverX)
In short: as §3

STK39 = target: T7, STK39 (Homo sapiens, UniProt Q9UEW8); test: KINOMEscan; assay type: binding; settings: STK39, 1 uM
T7 construct: purchased Ambit KINOMEscan (DiscoverX)
In short: as §3

TAO1 = target: T8, TAO1 (Homo sapiens, UniProt Q9UL54); test: KINOMEscan; assay type: binding; settings: TAO1, 1 uM
T8 construct: purchased Ambit KINOMEscan (DiscoverX)
In short: as §3

MAST1 = target: T9, MAST1 (Homo sapiens, UniProt Q9Y2H9); test: KINOMEscan; assay type: binding; settings: MAST1, 1 uM
T9 construct: purchased Ambit KINOMEscan (DiscoverX)
In short: as §3

ERBB2 = target: T10, ERBB2 (Homo sapiens, UniProt P04626); test: KINOMEscan; assay type: binding; settings: ERBB2, 1 uM
T10 construct: purchased Ambit KINOMEscan (DiscoverX)
In short: as §3

PRKCD = target: T11, PRKCD (Homo sapiens, UniProt Q05655); test: KINOMEscan; assay type: binding; settings: 1 uM
T11 construct: purchased Ambit KINOMEscan (DiscoverX)
In short: as §3

BRSK2 = target: T12, BRSK2 (Homo sapiens, UniProt Q8IWQ3); test: KINOMEscan; assay type: binding; settings: BRSK2, 1 uM
T12 construct: purchased Ambit KINOMEscan (DiscoverX)
In short: as §3

TNK1 = target: T13, TNK1 (Homo sapiens, UniProt Q13470); test: KINOMEscan; assay type: binding; settings: TNK1, 1 uM
T13 construct: purchased Ambit KINOMEscan (DiscoverX)
In short: as §3

AKT1 = target: T14, AKT1 (Homo sapiens, UniProt P31749); test: KINOMEscan; assay type: binding; settings: AKT1, 1 uM
T14 construct: purchased Ambit KINOMEscan (DiscoverX)
In short: as §3

[3] = target: T15, RPS6KA6(Kin.Dom.2-C-terminal) (Homo sapiens, UniProt Q9UK32); test: KINOMEscan; assay type: binding; settings: 1 uM
T15 construct: RPS6KA6(Kin.Dom.2-C-terminal); purchased Ambit KINOMEscan (DiscoverX)
In short: as §3

DLD-1 (K-RAS^G13D/+) = test: Cell cycle analysis (propidium iodide FACS); assay type: cell-based; settings: DLD-1 cells
Experimental: as §2

MAPKAPK2 = target: T16, MAPKAPK2 (Homo sapiens, UniProt P49137); test: KINOMEscan; assay type: binding; settings: MAPKAPK2, 1 uM
T16 construct: purchased Ambit KINOMEscan (DiscoverX)

[4] = tested on: antigen-induced airway inflammation; design: method as in PMID 12766258; settings: rats ref 14; cited from earlier work
B cell migration = tested on: B cell migration; design: method as in PMID 21123826; settings: mice ref 15; cited from earlier work
PKNB(M.tuberculosis) = PKNB(M.tuberculosis) (Mycobacterium tuberculosis, UniProt P9WI81); settings: 1 uM
Experimental: (§4) First, we used Ambit's KINOMEscan™ technology to identify those kinases that are inhibited for substrate binding by the compounds, all assayed at 1 μM. Second, we used Invitrogen's SelectScreen® Biochemical Kinase Profiling Service to determine the in vitro IC50s for the compounds against specific kinases.

CDC2L5 = CDC2L5 (Homo sapiens, UniProt Q14004); settings: CDC2L5, 1 uM
Experimental: as §4

[5] = tested on: panel of colorectal cancer cell lines; test: Cell viability (Syto60) in a panel of colorectal cancer cell lines; assay type: cell-based; settings: 72 hours, 3 cell lines expressing wild-type K-RAS
Experimental: as §2
Relative cell viability was normalized to an untreated control for each cell line. Error bars represent SEM for 3 independent experiments. […] (PDF) Click here for additional data file.

T16 sequence (P49137 whole entry): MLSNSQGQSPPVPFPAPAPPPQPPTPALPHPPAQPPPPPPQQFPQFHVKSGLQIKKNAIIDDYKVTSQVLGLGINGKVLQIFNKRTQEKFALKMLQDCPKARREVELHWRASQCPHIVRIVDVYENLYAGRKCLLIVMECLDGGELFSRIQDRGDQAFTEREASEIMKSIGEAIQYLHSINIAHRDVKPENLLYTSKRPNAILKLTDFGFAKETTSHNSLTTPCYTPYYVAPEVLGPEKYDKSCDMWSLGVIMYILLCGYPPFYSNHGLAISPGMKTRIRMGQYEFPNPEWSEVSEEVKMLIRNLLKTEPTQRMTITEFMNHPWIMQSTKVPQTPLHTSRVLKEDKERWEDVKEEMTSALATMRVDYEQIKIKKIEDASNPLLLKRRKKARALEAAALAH
T10 sequence (P04626 23-1255): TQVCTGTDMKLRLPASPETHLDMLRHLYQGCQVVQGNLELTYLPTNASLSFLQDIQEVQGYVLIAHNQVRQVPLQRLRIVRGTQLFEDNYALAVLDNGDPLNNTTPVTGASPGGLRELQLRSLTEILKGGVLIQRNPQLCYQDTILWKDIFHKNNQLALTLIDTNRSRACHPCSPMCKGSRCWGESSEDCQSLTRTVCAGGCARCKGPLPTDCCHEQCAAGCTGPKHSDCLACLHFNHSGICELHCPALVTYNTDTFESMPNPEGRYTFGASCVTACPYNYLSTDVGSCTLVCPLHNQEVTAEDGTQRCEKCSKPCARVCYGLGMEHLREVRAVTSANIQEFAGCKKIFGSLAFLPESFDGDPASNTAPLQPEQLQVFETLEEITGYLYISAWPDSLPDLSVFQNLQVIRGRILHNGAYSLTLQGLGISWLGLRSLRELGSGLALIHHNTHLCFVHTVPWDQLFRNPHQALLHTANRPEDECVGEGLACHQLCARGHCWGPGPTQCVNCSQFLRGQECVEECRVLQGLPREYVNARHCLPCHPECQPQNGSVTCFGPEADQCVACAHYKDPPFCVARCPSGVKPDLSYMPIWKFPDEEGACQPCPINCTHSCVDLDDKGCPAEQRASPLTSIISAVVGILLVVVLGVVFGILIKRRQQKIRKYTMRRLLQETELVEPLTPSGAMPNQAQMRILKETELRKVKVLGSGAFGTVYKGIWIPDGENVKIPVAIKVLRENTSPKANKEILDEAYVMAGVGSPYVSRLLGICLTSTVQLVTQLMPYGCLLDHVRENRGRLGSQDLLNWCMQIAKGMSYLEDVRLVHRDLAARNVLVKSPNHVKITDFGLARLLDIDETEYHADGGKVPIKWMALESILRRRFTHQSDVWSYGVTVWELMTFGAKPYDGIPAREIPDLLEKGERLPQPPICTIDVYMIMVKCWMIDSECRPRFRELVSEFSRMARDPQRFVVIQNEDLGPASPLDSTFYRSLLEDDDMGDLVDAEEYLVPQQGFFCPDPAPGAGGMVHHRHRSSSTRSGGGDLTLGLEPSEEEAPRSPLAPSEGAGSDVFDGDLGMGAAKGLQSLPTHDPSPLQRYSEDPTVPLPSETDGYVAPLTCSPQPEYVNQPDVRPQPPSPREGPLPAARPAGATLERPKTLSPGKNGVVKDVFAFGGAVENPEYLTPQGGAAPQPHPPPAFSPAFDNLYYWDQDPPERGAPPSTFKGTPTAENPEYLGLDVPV
T5 sequence (Q02750 whole entry): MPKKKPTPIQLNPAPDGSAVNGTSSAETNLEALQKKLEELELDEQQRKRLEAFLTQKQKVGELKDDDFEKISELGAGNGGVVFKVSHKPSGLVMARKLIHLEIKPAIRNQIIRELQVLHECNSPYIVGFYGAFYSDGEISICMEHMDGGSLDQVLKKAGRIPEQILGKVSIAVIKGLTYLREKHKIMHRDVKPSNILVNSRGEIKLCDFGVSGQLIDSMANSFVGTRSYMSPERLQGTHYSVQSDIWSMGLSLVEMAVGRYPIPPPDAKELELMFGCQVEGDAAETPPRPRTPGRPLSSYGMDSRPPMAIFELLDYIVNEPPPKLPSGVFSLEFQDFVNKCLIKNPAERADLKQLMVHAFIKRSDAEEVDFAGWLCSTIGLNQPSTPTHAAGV
T14 sequence (P31749 whole entry): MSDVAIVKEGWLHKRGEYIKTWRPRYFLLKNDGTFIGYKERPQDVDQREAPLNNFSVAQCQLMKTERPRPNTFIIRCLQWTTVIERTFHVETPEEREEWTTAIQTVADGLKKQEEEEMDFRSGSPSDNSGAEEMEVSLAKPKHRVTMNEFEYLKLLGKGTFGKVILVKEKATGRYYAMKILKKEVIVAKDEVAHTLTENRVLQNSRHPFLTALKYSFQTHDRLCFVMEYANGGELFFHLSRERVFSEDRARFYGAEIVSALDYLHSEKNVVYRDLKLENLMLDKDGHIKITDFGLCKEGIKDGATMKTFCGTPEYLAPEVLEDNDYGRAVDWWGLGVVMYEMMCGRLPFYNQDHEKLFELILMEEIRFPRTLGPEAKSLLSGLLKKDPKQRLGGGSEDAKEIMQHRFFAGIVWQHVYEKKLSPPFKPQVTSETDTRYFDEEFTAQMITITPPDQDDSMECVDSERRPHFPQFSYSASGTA
T1 sequence (P23458 583-855 limits assumed): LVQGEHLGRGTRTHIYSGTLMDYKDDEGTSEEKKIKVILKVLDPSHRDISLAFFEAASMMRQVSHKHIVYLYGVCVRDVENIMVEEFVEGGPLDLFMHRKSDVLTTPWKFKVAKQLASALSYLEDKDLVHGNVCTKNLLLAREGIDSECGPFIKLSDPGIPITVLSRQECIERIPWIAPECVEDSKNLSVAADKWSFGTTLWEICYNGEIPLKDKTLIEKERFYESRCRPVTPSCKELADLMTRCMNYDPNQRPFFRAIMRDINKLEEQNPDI
T12 sequence (Q8IWQ3 whole entry): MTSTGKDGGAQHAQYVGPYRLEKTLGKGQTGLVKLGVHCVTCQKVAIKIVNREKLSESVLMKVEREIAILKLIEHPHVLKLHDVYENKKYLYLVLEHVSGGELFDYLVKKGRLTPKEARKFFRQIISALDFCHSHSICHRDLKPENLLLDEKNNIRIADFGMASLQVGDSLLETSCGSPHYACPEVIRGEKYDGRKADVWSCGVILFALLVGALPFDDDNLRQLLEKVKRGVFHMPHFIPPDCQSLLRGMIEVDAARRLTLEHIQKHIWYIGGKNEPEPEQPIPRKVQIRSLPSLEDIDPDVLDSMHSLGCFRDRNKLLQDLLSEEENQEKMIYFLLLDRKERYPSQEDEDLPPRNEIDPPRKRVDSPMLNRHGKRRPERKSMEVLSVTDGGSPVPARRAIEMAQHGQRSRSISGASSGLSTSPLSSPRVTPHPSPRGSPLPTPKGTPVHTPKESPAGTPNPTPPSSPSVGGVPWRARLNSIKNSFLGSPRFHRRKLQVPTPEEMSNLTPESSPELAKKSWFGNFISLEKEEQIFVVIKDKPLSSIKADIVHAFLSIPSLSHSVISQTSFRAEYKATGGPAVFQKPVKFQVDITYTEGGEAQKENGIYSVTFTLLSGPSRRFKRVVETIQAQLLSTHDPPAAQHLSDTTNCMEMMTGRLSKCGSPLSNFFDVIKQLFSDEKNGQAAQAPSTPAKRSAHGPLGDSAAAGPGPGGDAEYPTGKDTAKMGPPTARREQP
T8 sequence (Q9UL54 whole entry): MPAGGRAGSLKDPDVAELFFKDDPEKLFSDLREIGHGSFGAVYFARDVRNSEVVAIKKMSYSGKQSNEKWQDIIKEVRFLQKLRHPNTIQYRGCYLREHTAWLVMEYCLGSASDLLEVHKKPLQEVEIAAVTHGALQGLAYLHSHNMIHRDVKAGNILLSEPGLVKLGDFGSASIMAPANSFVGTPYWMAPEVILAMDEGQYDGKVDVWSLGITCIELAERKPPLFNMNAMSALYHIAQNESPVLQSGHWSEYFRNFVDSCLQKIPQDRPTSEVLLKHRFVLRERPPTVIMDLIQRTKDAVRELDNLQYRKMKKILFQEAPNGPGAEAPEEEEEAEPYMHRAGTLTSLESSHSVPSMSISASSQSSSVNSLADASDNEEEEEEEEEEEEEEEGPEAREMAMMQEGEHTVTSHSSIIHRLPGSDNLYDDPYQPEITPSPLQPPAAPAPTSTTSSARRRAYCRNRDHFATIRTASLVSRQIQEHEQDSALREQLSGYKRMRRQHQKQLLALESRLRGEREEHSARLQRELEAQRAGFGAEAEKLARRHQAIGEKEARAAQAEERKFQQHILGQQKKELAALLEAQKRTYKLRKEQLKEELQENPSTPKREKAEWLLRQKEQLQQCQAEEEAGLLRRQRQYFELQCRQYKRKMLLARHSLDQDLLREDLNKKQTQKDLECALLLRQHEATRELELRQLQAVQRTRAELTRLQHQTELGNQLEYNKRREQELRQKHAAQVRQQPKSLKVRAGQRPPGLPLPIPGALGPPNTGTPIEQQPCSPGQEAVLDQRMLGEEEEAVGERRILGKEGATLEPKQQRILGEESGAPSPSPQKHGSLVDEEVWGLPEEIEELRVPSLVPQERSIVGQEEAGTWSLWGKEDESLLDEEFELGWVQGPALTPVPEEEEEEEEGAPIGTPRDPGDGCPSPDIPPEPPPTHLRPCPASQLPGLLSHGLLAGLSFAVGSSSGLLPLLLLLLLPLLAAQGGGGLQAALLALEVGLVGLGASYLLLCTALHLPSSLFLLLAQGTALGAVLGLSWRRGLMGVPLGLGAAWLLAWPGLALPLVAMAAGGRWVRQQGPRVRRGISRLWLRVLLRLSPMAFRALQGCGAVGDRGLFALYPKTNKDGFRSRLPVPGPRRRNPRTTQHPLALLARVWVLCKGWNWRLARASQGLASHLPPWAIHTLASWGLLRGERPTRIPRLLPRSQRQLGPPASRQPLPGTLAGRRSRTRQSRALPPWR

Compound	% binding compared to no inhibitor control [2]	% binding compared to no inhibitor control (WEE1)	% binding compared to no inhibitor control (JNK2)	% binding compared to no inhibitor control (BMX)	% binding compared to no inhibitor control (MEK1)	% binding compared to no inhibitor control (BMPR1A)	% binding compared to no inhibitor control (STK39)	% binding compared to no inhibitor control (TAO1)	% binding compared to no inhibitor control (MAST1)	% binding compared to no inhibitor control (ERBB2)	% binding compared to no inhibitor control (PRKCD)	% binding compared to no inhibitor control (BRSK2)	% binding compared to no inhibitor control (TNK1)	% binding compared to no inhibitor control (AKT1)	% binding compared to no inhibitor control [3]	% binding compared to no inhibitor control (MAPKAPK2)	other results
COc1ccc(-c2cc3nccn3c(Nc3ncccc3C(N)=O)n2)cc1OC.Cl.Cl [BAY61-3606, 2-[7-(3,4-dimethoxyphenyl)-imidazo [1,2-c]pyrimidin-5-ylamino] nicotinamide dihydrochloride, reference compound]	80%	89%	100%	95%	100%	79%	46%	100%	52%	93%	94%	84%	82%	93%	79%	100%	sensitivity of cells expressing mutant K-RAS (cell viability) (HCT-116 (K-RAS^G13D/+); 72 hours, HCT-116 compared to HKe-3, normalized to DMSO): relatively sensitive; cooperation with AZ-628 (cell viability) (HCT-116 (K-RAS^G13D/+); HCT-116, 72 hours, 1 µM AZ-628): did not cooperate; cell viability, combination of BAY61-3606 and CI-1040 [1]: cooperated to produce an enhanced response; sensitivity of cells expressing mutant B-RAF (cell viability) ([1]; single agent): sensitive; apoptosis (DLD-1 (K-RAS^G13D/+)): nor did it induce apoptosis; cell cycle profile (DLD-1 (K-RAS^G13D/+); propidium iodide): did not alter the cell cycle profile; antigen-induced airway inflammation [4]: suppresses; B cell migration (B cell migration): suppresses
COc1ccccc1Nc1nc(-c2ccc(OC)c(OC)c2)cc2nccn12 [BAY derivative 6]	1.2%	100%	100%	95%	100%	100%	97%	96%	74%	71%	100%	100%	56%	91%	93%	93%	% binding compared to no inhibitor control (PKNB(M.tuberculosis)): 99%; % binding compared to no inhibitor control (CDC2L5): 88%; cell lines expressing wild-type K-RAS that responded [5]: 0/3
